Results on 33 compounds are retold here after patent US11530210B2, “Substituted heteroaromatic pyrazolo-pyridines and their use as GLUN2B receptor modulators” (JANSSEN PHARMACEUTICA NV, priority 2019, dated 2022).

SMILES strings stand for the structures. pIC50: −log10 of the molar value. Where a name gives a salt, the structure may show the parent alone.

T1 sequence (Q13224 27-1484, other chains not shown): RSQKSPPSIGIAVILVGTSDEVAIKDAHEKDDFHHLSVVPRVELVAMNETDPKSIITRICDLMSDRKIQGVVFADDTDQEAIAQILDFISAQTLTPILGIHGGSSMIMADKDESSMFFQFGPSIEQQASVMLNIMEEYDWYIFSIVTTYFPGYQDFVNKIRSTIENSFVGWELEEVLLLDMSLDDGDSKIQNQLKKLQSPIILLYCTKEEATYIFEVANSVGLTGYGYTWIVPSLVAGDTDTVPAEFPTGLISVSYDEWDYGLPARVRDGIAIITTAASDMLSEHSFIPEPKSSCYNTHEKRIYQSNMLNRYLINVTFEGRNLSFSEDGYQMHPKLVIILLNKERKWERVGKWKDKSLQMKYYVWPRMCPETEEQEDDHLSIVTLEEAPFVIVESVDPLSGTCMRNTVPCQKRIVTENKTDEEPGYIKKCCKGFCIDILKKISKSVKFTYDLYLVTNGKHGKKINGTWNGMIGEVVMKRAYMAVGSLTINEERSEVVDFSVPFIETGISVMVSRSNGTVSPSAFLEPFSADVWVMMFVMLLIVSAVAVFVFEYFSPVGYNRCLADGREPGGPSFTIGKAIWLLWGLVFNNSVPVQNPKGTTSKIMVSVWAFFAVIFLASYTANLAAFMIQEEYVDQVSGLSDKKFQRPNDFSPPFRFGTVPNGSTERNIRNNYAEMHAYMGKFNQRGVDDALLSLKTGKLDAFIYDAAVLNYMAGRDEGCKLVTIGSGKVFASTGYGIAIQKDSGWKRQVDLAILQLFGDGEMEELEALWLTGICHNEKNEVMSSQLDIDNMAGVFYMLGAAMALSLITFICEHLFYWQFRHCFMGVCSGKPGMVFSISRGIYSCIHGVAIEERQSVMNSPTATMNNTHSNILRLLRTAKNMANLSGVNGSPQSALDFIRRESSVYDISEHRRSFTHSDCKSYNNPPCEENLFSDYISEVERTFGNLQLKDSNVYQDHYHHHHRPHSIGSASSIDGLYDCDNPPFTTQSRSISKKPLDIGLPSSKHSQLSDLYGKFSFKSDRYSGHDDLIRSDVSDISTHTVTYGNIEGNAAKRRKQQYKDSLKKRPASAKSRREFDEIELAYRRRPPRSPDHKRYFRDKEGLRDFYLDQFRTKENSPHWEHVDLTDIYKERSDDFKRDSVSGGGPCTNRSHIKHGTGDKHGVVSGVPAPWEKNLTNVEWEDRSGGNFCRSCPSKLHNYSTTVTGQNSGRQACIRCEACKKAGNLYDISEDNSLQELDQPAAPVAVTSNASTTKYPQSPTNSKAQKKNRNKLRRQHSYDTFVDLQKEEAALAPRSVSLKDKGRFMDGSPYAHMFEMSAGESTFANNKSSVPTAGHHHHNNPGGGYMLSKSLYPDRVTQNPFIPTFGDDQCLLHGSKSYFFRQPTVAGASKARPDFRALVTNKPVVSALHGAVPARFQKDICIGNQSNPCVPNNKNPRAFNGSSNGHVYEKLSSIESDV

The assay concerns the target T1, human GluN1/GluN2B NMDA receptors (Homo sapiens, UniProt Q13224).
T1 construct: expressed in transfected cells
Kind of assay: Calcium flux (FLIPR) assay on cloned human NR1/GluN2B ion channels expressed in mammalian cells (standard and HTS variants). The note with it: cells expressing human GluN1/GluN2B, glutamate and glycine co-agonists. In kind it is cell-based. The protocol:
Effects of Test Articles on Cloned Human NR1/GuN2B Ion Channels Expressed in Mammalian Cells
NMDA receptors are ion channels that are highly permeable to Ca^2+ ions, rendering it possible to monitor NMDA receptor function using cell-based calcium flux assay. In this assay, co-agonists glutamate and glycine are added to cells heterologously expressing human GluN1/GluN2B NMDA receptors to initiate cellular Ca^2+ influx. The time course of the changes in intracellular calcium is measured using a fluorescent dye and a FLIPR (Fluorometric Imaging Plate Reader) device.
Twenty-four hours before measurements, the expression of the NMDA receptors in the stable cell line is induced with Tet-On inducible system in the presence of a non-selective NMDA receptor blocker. On the day of the experiment, cell culture media is carefully washed, and the cells are loaded with Calcium 5 Dye Kit (Molecular Devices) in dye loading buffer containing 137 mM NaCl, 4 mM KCl, 2 mM CaCl2, 0.5 mM MgCl2 (standard assay) or 1.5 mM MgCl2 (HTS assay), 10 mM HEPES and 5 mM D-glucose; pH 7.4. After 1 h incubation at the room temperature, the dye is washed away with the assay buffer (137 mM NaCl (standard assay) or 150 mM (HTS assay), 4 mM KCl (standard assay) or 3 mM (HTS assay), 2 mM CaCl2), 0.01 mM EDTA, 10 mM HEPES and 5 mM D-glucose; pH 7.4) In the FLIPR TETRA reader, various concentrations of the test compounds are added to the cells for 5 min while fluorescence is monitored to detect potential agonist activity. Next, co-agonists, glutamate and glycine are added for another 5 minutes. The concentration of glutamate corresponding to ˜EC40 (standard assay) or EC40 (HTS assay) is used to maximize the assay's signal window and ability to detect NMDA receptor antagonists and negative allosteric modulators. A saturating concentration (10 μM) of glycine is also present in the assay. A non-selective NMDA receptor antagonist, (+)MK-801 is used as a positive control for antagonist activity. The fluorescent signal in the presence of test compounds is quantified and normalized to the signal defined by the appropriate control wells.
Take `COc1cc(Cn2ncc3ncc(-c4ccc(F)c(C(F)F)c4)cc32)ncn1` [Example 288, 6-[3-(Difluoromethyl)-4-fluoro-phenyl]-1-[(6-methoxypyrimidin-4-yl)methyl]pyrazolo[4,3-b]pyridine]: the pIC50 is 6.74. As to `CCc1nnc(Cn2ncc3ncc(-c4ccc(F)c(C(F)F)c4)cc32)s1` [Example 125, 2-[[6-[3-(Difluoromethyl)-4-fluoro-phenyl]pyrazolo[4,3-b]pyridin-1-yl]methyl]-5-ethyl-1,3,4-thiadiazole], the negative-log IC50 (pIC50) is 6.86.

Regarding `Fc1ccc(-c2cnc3cnn(Cc4cncc(C(F)F)c4)c3c2)cc1C(F)F` [Example 209, 6-[3-(Difluoromethyl)-4-fluoro-phenyl]-1-[[5-(difluoromethyl)-3-pyridyl]methyl]pyrazolo[4,3-b]pyridine], the negative logarithm of the IC50 (pIC50) is 7.70. For the compound `Oc1nnc(Cn2ncc3ncc(-c4ccc(F)c(C(F)F)c4)cc32)s1` [Example 17, 5-[[6-[3-(Difluoromethyl)-4-fluoro-phenyl]pyrazolo[4,3-b]pyridin-1-yl]methyl]-1,3,4-thiadiazol-2-ol], the negative-log IC50 (pIC50) was 7.19. Turning to `Cc1nnc(Cn2ncc3ncc(-c4ccc(F)c(C(C)(F)F)c4)cc32)o1` [Example 104, 2-[[6-[3-(1,1-Difluoroethyl)-4-fluoro-phenyl]pyrazolo[4,3-b]pyridin-1-yl]methyl]-5-methyl-1,3,4-oxadiazole], the pIC50 is 6.61. For the compound `Fc1ncccc1Cn1ncc2ncc(-c3cccc(C(F)(F)F)c3)cc21` [Example 170, 1-[(2-Fluoro-3-pyridyl)methyl]-6-[3-(trifluoromethyl)phenyl]pyrazolo[4,3-b]pyridine], the negative-log IC50 (pIC50) is 5.98.

For the compound `COc1cncc(Cn2ncc3ncc(-c4ccc(F)c(C(F)(F)F)c4)cc32)c1` [Example 234, 6-[4-Fluoro-3-(trifluoromethyl)phenyl]-1-[(5-methoxy-3-pyridyl)methyl]pyrazolo[4,3-b]pyridine], the negative-log IC50 (pIC50) was 7.04. As to `Cc1nnc(Cn2nc(F)c3ncc(-c4ccc(F)c(Cl)c4)cc32)o1` [Example 93, 2-[[6-(3-Chloro-4-fluoro-phenyl)-3-fluoro-pyrazolo[4,3-b]pyridin-1-yl]methyl]-5-methyl-1,3,4-oxadiazole], the pIC50 was 7.06. `COc1cncc(Cn2ncc3ncc(-c4ccc(Cl)c(OC(F)F)c4)cc32)c1` [Example 242, 6-[4-Chloro-3-(difluoromethoxy)phenyl]-1-[(5-methoxy-3-pyridyl)methyl]pyrazolo[4,3-b]pyridine]: the negative logarithm of the IC50 (pIC50) is 6.30. Regarding `CC(F)(F)c1cccc(-c2cnc3cnn(Cc4cn[nH]c4)c3c2)c1` [Example 35, 6-[3-(1,1-Difluoroethyl)phenyl]-1-(1H-pyrazol-4-ylmethyl)pyrazolo[4,3-b]pyridine], the pIC50 was 6.19. Regarding `Fc1cncc(Cn2ncc3ncc(-c4cccc(C(F)(F)F)c4)cc32)c1` [Example 171, 1-[(5-Fluoro-3-pyridyl)methyl]-6-[3-(trifluoromethyl)phenyl]pyrazolo[4,3-b]pyridine], the negative-log IC50 (pIC50) was 6.67. Consider `Cc1cncc(Cn2ncc3ncc(-c4cccc(C(F)(F)F)c4)cc32)c1` [Example 167, 1-[(5-Methyl-3-pyridyl)methyl]-6-[3-(trifluoromethyl)phenyl]pyrazolo[4,3-b]pyridine], for which the negative logarithm of the IC50 (pIC50) was 6.60. For the compound `Fc1cncc(Cn2ncc3ncc(-c4cccc(OC(F)F)c4)cc32)c1` [Example 159, 6-[3-(Difluoromethoxy)phenyl]-1-[(5-fluoro-3-pyridyl)methyl]pyrazolo[4,3-b]pyridine], the negative logarithm of the IC50 (pIC50) is 6.60. As for `Cc1nnc(Cn2nc(F)c3ncc(-c4ccc(F)c(C(F)F)c4)cc32)s1` [Example 123, 2-[[6-[3-(Difluoromethyl)-4-fluoro-phenyl]-3-fluoro-pyrazolo[4,3-b]pyridin-1-yl]methyl]-5-methyl-1,3,4-thiadiazole], the negative-log IC50 (pIC50) was 7.38. `Cc1cccc(-c2cnc3c(F)nn(Cc4cncc(F)c4)c3c2)c1` [Example 147, 3-Fluoro-1-[(5-fluoro-3-pyridyl)methyl]-6-(m-tolyl)pyrazolo[4,3-b]pyridine]: the pIC50 was 7.32. Consider `Fc1cc(-c2cnc3cnn(Cc4ccccn4)c3c2)cc(F)c1F` [Example 250, 1-(2-Pyridylmethyl)-6-(3,4,5-trifluorophenyl)pyrazolo[4,3-b]pyridine], for which the pIC50 was 5.58. As for `Cc1cc(-c2cnc3cnn(Cc4ccc(F)nc4)c3c2)ccc1F` [Example 182, 6-(4-Fluoro-3-methyl-phenyl)-1-[(6-fluoro-3-pyridyl)methyl]pyrazolo[4,3-b]pyridine], the pIC50 is 7.19. For `Cc1cc(Cn2ncc3ncc(-c4cccc(C(F)(F)F)c4)cc32)ns1` [Example 64, 5-Methyl-3-[[6-[3-(trifluoromethyl)phenyl]pyrazolo[4,3-b]pyridin-1-yl]methyl]isothiazole], the negative-log IC50 (pIC50) is 5.65.

Consider `Cc1noc(Cn2ncc3ncc(-c4ccc(F)c(C(F)(F)F)c4)cc32)n1` [Example 110, 5-[[6-[4-Fluoro-3-(trifluoromethyl)phenyl]pyrazolo[4,3-b]pyridin-1-yl]methyl]-3-methyl-1,2,4-oxadiazole], for which the negative logarithm of the IC50 (pIC50) is 6.40. Regarding `N#Cc1cncc(Cn2ncc3ncc(-c4cccc(C(F)(F)F)c4)cc32)c1` [Example 3, 5-[[6-[3-(Trifluoromethyl)phenyl]pyrazolo[4,3-b]pyridin-1-yl]methyl]pyridine-3-carbonitrile], the pIC50 is 6.32. The same measure for `Fc1ccc(-c2cnc3cnn(Cc4ccon4)c3c2)cc1C(F)F` [Example 51, 3-[[6-[3-(Difluoromethyl)-4-fluoro-phenyl]pyrazolo[4,3-b]pyridin-1-yl]methyl]isoxazole]: 7.64; for `Cc1cnc(Cn2ncc3ncc(-c4ccc(F)c(C)c4)cc32)o1` [Example 49, 2-[[6-(4-Fluoro-3-methyl-phenyl)pyrazolo[4,3-b]pyridin-1-yl]methyl]-5-methyl-oxazole]: 7.28; for `FC(F)(F)c1cccc(-c2cnc3cnn(Cc4ccncc4)c3c2)c1` [Example 164, 1-(4-Pyridylmethyl)-6-[3-(trifluoromethyl)phenyl]pyrazolo[4,3-b]pyridine hydrochloride salt]: 6.10.

Take `Cc1nnc(Cn2ncc3ncc(-c4cccc(C(C)(F)F)c4)cc32)o1` [Example 82, 2-[[6-[3-(1,1-Difluoroethyl)phenyl]pyrazolo[4,3-b]pyridin-1-yl]methyl]-5-methyl-1,3,4-oxadiazole]: the pIC50 was 6.80.

On to `Fc1cccc(Cn2ncc3ncc(-c4cccc(C(F)(F)F)c4)cc32)c1` [Example 22, 1-[(3-Fluorophenyl)methyl]-6-[3-(trifluoromethyl)phenyl]pyrazolo[4,3-b]pyridine hydrochloride salt], for which the pIC50 was 5.74. The same measure for `Cc1nnc(Cn2ncc3ncc(-c4ccc(F)c(OC(F)F)c4)cc32)o1` [Example 113, 2-[[6-[3-(Difluoromethoxy)-4-fluoro-phenyl]pyrazolo[4,3-b]pyridin-1-yl]methyl]-5-methyl-1,3,4-oxadiazole]: 6.98; for `Cc1nnc(Cn2ncc3ncc(-c4ccc(Cl)s4)cc32)o1` [Example 77, 2-[[6-(5-Chloro-2-thienyl)pyrazolo[4,3-b]pyridin-1-yl]methyl]-5-methyl-1,3,4-oxadiazole]: 7.05.

As for `Cc1ccc(Cn2ncc3ncc(-c4ccc(F)c(C(F)F)c4)cc32)s1` [Example 32, 6-[3-(Difluoromethyl)-4-fluoro-phenyl]-1-[(5-methyl-2-thienyl)methyl]pyrazolo[4,3-b]pyridine], the negative-log IC50 (pIC50) is < 5.52. Under `N#Cc1cc(F)cc(Cn2ncc3ncc(-c4ccc(F)c(OC(F)F)c4)cc32)c1` [Example 31, 3-[[6-[3-(Difluoromethoxy)-4-fluoro-phenyl]pyrazolo[4,3-b]pyridin-1-yl]methyl]-5-fluoro-benzonitrile] stands 6.41. On to `Fc1ccc(Cn2ncc3ncc(-c4ccc(F)c(F)c4)cc32)cn1` [Example 191, 6-(3,4-Difluorophenyl)-1-[(6-fluoro-3-pyridyl)methyl]pyrazolo[4,3-b]pyridine], for which the negative logarithm of the IC50 (pIC50) was 6.75. As for `COc1ccc(Cn2ncc3ncc(-c4ccc(F)c(C(F)F)c4)cc32)cn1` [Example 204, 6-[3-(Difluoromethyl)-4-fluoro-phenyl]-1-[(6-methoxy-3-pyridyl)methyl]pyrazolo[4,3-b]pyridine], the pIC50 is 5.79. Turning to `COc1cccc(Cn2ncc3ncc(-c4ccc(F)c(OC(F)F)c4)cc32)n1` [Example 228, 6-[3-(Difluoromethoxy)-4-fluoro-phenyl]-1-[(6-methoxy-2-pyridyl)methyl]pyrazolo[4,3-b]pyridine], the pIC50 is 6.42. On to `Cc1ccc(-c2cnc3cnn(Cc4cccnc4)c3c2)s1` [Example 139, 6-(5-Methyl-2-thienyl)-1-(3-pyridylmethyl)pyrazolo[4,3-b]pyridine], for which the pIC50 was 7.05.

Usually pIC50 stands for the negative decadic logarithm of the IC50, by convention in mol/L.
